Measured values published in PubChem BioAssay (NCI).
“And” between values parts separate entries of the source, which are not always exact repeats. Equal entries are not always repeated.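 Step 1: Grow cells in 96-well plates. Step 2: Expose to compound for 48 hours at 5 concentrations. Step 3: Interpolate endpoints linearly; if unreached, use highest concentration. At the GI50, growth is halved. TGI denotes the concentration required for complete inhibition of growth.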

Columns and labels:
Test in all cases: growth of human tumour cells (NCI), 48 h
NCI-H522 lung = test system: NCI-H522 lung
CCRF-CEM leukemia = test system: CCRF-CEM leukemia
ACHN renal = test system: ACHN renal
NCI-H460 lung = test system: NCI-H460 lung
HCT-116 colon = test system: HCT-116 colon
EKVX NSCLC = test system: EKVX NSCLC
M14 melanoma = test system: M14 melanoma
UACC-62 melanoma = test system: UACC-62 melanoma
DU-145 prostate = test system: DU-145 prostate
CAKI-1 renal = test system: CAKI-1 renal

SMILES	GI50 (NCI-H522 lung)	TGI (NCI-H522 lung) [µM]	GI50 (CCRF-CEM leukemia) [nM]	TGI (CCRF-CEM leukemia)	GI50 (ACHN renal) [µM]	TGI (ACHN renal)	GI50 (NCI-H460 lung) [µM]	TGI (NCI-H460 lung)	GI50 (HCT-116 colon) [nM]	TGI (HCT-116 colon)	GI50 (EKVX NSCLC) [µM]	TGI (EKVX NSCLC)	GI50 (M14 melanoma) [µM]	TGI (M14 melanoma) [µM]	GI50 (UACC-62 melanoma)	TGI (UACC-62 melanoma) [µM]	GI50 (DU-145 prostate) [µM]	TGI (DU-145 prostate) [µM]	TGI (CAKI-1 renal) [µM]	GI50 (CAKI-1 renal) [µM]
COc1ccc(-c2c(NC(=O)Nc3ccc(Cl)c(C(F)(F)F)c3)cnn2-c2ccc(S(N)(=O)=O)cc2)cc1	2980 nM	12.3	3000	11.3 µM	3.97	14.2 µM	3.5	10.4 µM	2040	4.22 µM	3.77	16.4 µM	3.32	12	2070 nM	4.47	3.46	12.1	–	–
Cn1nc(-c2ccccc2)c2c(/C=C/c3ccc(F)cc3)onc2c1=O	–	51.1	–	> 100 µM	–	> 100 µM	–	> 100 µM	–	> 100 µM	–	> 100 µM	–	> 100	–	> 100	–	–	66	–
CC(=O)N(N=O)c1ccc(N(N=O)C(C)=O)cc1	–	> 100	–	> 100 µM	–	> 100 µM	–	> 100 µM	–	> 100 µM	–	–	–	> 100	–	> 100	–	–	> 100	–
NCCCNCc1c2ccccc2c(CNCCCN)c2ccccc12	–	21	–	46.6 µM	–	> 100 µM	–	32.6 µM	–	48.2 µM	–	43.5 µM	–	–	–	> 100	–	–	> 100	–
C/C(=N\NC(=O)c1ccccc1O)c1c(O)cc(C)oc1=O	–	> 100	–	–	–	> 100 µM	–	> 100 µM	–	> 100 µM	–	88.6 µM	–	> 100	–	> 100	–	–	–	–
COC(=O)[C@@H](C)C[C@H](Cc1ccc(F)cc1)NC(=O)c1csc([C@@H](C[C@H](C(C)C)N(C)C(=O)[C@@H](NC(=O)[C@H]2CCCCN2C)C2CC2)OC(C)=O)n1	57.7 nM	0.213	153	> 25 µM	1.98	> 25 µM	0.255	> 25 µM	116	> 9.49 µM	0.88	> 25 µM	0.157	> 5.99	137 nM	> 25	0.238	> 9.05	–	–
COc1nc(NC2OC(COC(C)=O)C(OC(C)=O)C(OC(C)=O)C2OC(C)=O)c(N=C(C)C(C)=O)c(=O)n1C (configuration not stated)	–	–	–	> 100 µM	–	> 100 µM	–	> 100 µM	–	> 100 µM	–	> 100 µM	–	> 100	–	> 100	–	–	> 100	–
O=C(N/C(=C\c1cccc([N+](=O)[O-])c1)c1nc2c3c(ccc2[nH]1)C(=O)c1ccccc1C3=O)c1ccccc1	–	> 100	–	–	–	> 100 µM	–	> 100 µM	–	> 100 µM	–	> 100 µM	–	> 100	–	> 100	–	–	> 100	–
COC(=O)[C@@H](C)C[C@H](Cc1ccccc1)NC(=O)c1csc([C@@H](C[C@H](C(C)C)N(C)C(=O)[C@@H](NC(=O)[C@H]2CCCCN2C)c2ccc(F)cc2)OC(C)=O)n1	2.59 nM and 23.4 nM	–	–	25 µM and > 100 µM	–	25 µM and > 100 µM	–	25 µM and > 100 µM	–	25 µM and > 100 µM	–	25 µM and > 100 µM	–	–	3.31 nM and 2.5 nM	25	–	–	–	–
C=CCN=C1NC(=O)C(CC(=O)Nc2cccc(Cl)c2)S1 (configuration not stated)	–	> 100	–	> 100 µM	–	> 100 µM	–	> 100 µM	–	–	–	> 100 µM	–	> 100	–	> 100	–	–	> 100	–
Cc1ccc(NC(=O)C(=O)C2C(=O)NC(=O)NC2=O)c(C)c1	–	> 100	–	> 100 µM	–	> 100 µM	–	> 100 µM	–	> 100 µM	–	> 100 µM	–	> 100	–	> 100	–	–	> 100	–
O=C1/C(=C/c2ccc(Cl)cc2)N=C(c2ccccc2)N1c1cc(C(F)(F)F)ccc1Cl	20100 nM	76	–	–	22.1	> 100 µM	19.4	61.7 µM	16800	48.3 µM	21.9	> 100 µM	22	90.1	14000 nM	44.9	31.2	> 100	69.5	31
CCCCSC1CCSc2c1ccc1ccccc21 (configuration not stated)	–	–	–	–	–	–	–	–	–	> 100 µM	–	–	–	> 100	–	> 100	–	–	> 100	–
CN1CCN(c2ccncc2S(=O)(=O)N2CCN(C)CC2)CC1	–	> 100	–	–	–	> 100 µM	–	> 100 µM	–	> 100 µM	–	> 100 µM	–	> 100	–	> 100	–	> 100	> 100	–
CSc1ccc(Cc2cc(C(C)(C)C)cc(C(C)(C)C)c2O)cc1	–	–	–	40 µM	–	29 µM	–	27.2 µM	–	22.7 µM	–	32.1 µM	–	28.6	–	29.2	–	–	30.5	–
CCCC(=O)Oc1ccc(/C=N/NC(N)=S)nc1	–	> 100	–	> 100 µM	–	> 100 µM	–	> 100 µM	–	> 100 µM	–	> 100 µM	–	> 100	–	> 100	–	–	> 100	–
[Mn+3].[O-][Cl+3]([O-])([O-])O.[O-]c1ccccc1C=NCCN1CC1.[O-]c1ccccc1C=NCCN1CC1	27800 nM	> 100	–	–	23.5	72.9 µM	27	> 100 µM	15100	> 100 µM	41.3	> 100 µM	26.9	> 100	16600 nM	33.6	22.7	> 100	68.1	28.8
Cc1cc2[nH]c(=O)c3c4ncccc4cn3c2cc1C	–	–	2950	> 100 µM	2.44	> 100 µM	2.17	6.2 µM	1920	4.53 µM	> 100	> 100 µM	–	–	2060 nM	4.33	4.13	> 100	> 100	3.21
OCC1CC2C=CCC(C2)C1 (configuration not stated)	–	> 100	–	> 100 µM	–	> 100 µM	–	> 100 µM	–	> 100 µM	–	> 100 µM	–	> 100	–	> 100	–	–	> 100	–
C=C1C2CC(OC(C)=O)C3(C)C(c4ccoc4)OC(=O)[C@@H](O)[C@]13OC1C[C@H](OC(C)=O)C(C)(C)[C@H](C(O)C(=O)OC)[C@]12C (some centres not stated)	–	–	–	> 100 µM	–	> 100 µM	–	> 100 µM	–	> 100 µM	–	> 100 µM	–	> 100	–	> 100	–	–	–	–
